Source: US12655174B2, “Adenosine A3 receptor agonists, preparation methods and uses thereof” (ZHEJIANG VIMGREEN PHARMACEUTICALS, LTD., priority 2020, dated 2026)

Assay: Pharmacokinetic test of compound in SD rat
Type: in vivo
Conditions: SD rats, intragastric administration (IG), cassette dosing
Experimental: Example 28: Pharmacokinetic Test of Compound in SD Rat
The animal species used in this experiment were SD rats. There were 3 animals per group. The rats were dosed in cassette format, i.e., multiple (1-6) different compounds were dosed simultaneously to the same group of the SD rats. The vehicle used for the drug was 5% DMSO+5% Solutl+90% ([…] methylcellulose M450), and the administration route was intragastric administration (IG).

AUC_D | SMILES
360.90 kg·ng·h/mL/mg | CNC(=O)[C@H]1O[C@@H](n2cnc3c(NCc4cccc(OC)c4)nc(-c4cncc(Cl)c4)nc32)[C@H](O)[C@@H]1O (stereo in doubt) [compound 213, (2S,3S,4R,5S)-5-(2-(5-chloropyridin-3-yl)-6-((3-methoxybenzyl)amino)-9/-purin-9-yl)-3,4-dihydroxyl-N-methyltetrahydrofuran-2-carboxamide]
343.50 kg·ng·h/mL/mg | [2H]C([2H])([2H])NC(=O)[C@H]1O[C@@H](n2cnc3c(NCc4cccc(I)c4)ncnc32)[C@H](O)[C@@H]1O [compound 1, (2S,3S,4R,5R)-5-(6-(3-iodobenzylamino)-9H-purin-9-yl)-3,4-dihydroxyl-N-(methyl-d3)-tetrahydrofuran-2-formamide]
152.40 kg·ng·h/mL/mg | CONC(=O)[C@H]1O[C@@H](n2cnc3c(NCc4cccc(I)c4)ncnc32)[C@H](O)[C@@H]1O [compound 3, (2S,3S,4R,5R)-5-(6-(3-iodobenzylamino)-9H-purin-9-yl)-3,4-dihydroxyl-N-methoxy-tetrahydrofuran-2-formamide]
146.00 kg·ng·h/mL/mg | [2H]C([2H])([2H])NC(=O)[C@H]1O[C@@H](n2cnc3c(NCc4ccccc4)nc(-c4cccnc4)nc32)[C@H](O)[C@@H]1O [compound 10, (2S,3S,4R,5R)-5-(6-(benzylamino)-2-(pyridin-3-yl)-9H-purin-9-yl)-3,4-dihydroxyl-N-(methyl-d3)-tetrahydrofuran-2-formamide]
174.00 kg·ng·h/mL/mg | [2H]C([2H])([2H])NC(=O)[C@H]1O[C@@H](n2cnc3c(NCc4ccccc4)nc(-c4ccoc4)nc32)[C@H](O)[C@@H]1O [compound 11, (2S,3S,4R,5R)-5-(6-(benzylamino)-2-(furan-3-yl)-9H-purin-9-yl)-3,4-dihydroxyl-N-(methyl-d3)-tetrahydrofuran-2-formamide]
79.00 kg·ng·h/mL/mg | [2H]C([2H])([2H])NC(=O)[C@H]1O[C@@H](n2cnc3c(NCc4ccccc4)nc(-c4ccco4)nc32)[C@H](O)[C@@H]1O [compound 12, (2S,3S,4R,5R)-5-(6-(benzylamino)-2-(furan-2-yl)-9H-purin-9-yl)-3,4-dihydroxyl-N-(methyl-d3)-tetrahydrofuran-2-formamide]
807.78 kg·ng·h/mL/mg | [2H]C([2H])([2H])NC(=O)[C@H]1O[C@@H](n2cnc3c(NCc4ccccc4)nc(-c4cncc(Cl)c4)nc32)[C@H](O)[C@@H]1O [compound 15, (2S,3S,4R,5R)-5-(6-(benzylamino)-2-(5-chloropyridin-3-yl)-9H-purin-9-yl)-3,4-dihydroxyl-N-(methyl-d3)-tetrahydrofuran-2-formamide]
1291.00 kg·ng·h/mL/mg | [2H]C([2H])([2H])NC(=O)[C@H]1O[C@@H](n2cnc3c(NCc4ccccc4)nc(-c4cncc(C)c4)nc32)[C@H](O)[C@@H]1O [compound 16, (2S,3S,4R,5R)-5-(6-(benzylamino)-2-(5-methylpyridin-3-yl)-9H-purin-9-yl)-3,4-dihydroxyl-N-(methyl-d3)-tetrahydrofuran-2-formamide]
168.00 kg·ng·h/mL/mg | [2H]C([2H])([2H])NC(=O)[C@H]1O[C@@H](n2cnc3c(NCc4ccccc4)nc(-c4cnc(C)c(C)c4)nc32)[C@H](O)[C@@H]1O [compound 17, (2S,3S,4R,5R)-5-(6-(benzylamino)-2-(5,6-dimethylpyridin-3-yl)-9/-purin-9-yl)-3,4-dihydroxyl-N-(methyl-d3)-tetrahydrofuran-2-formamide]
74.00 kg·ng·h/mL/mg | [2H]C([2H])([2H])NC(=O)[C@H]1O[C@@H](n2cnc3c(NCc4ccccc4)nc(-c4cncc(C#N)c4)nc32)[C@H](O)[C@@H]1O [compound 19, (2S,3S,4R,5R)-5-(6-(benzylamino)-2-(5-cyanopyridin-3-yl)-9H-purin-9-yl)-3,4-dihydroxyl-N-(methyl-d3)-tetrahydrofuran-2-formamide]
1384.00 kg·ng·h/mL/mg | [2H]C([2H])([2H])NC(=O)[C@H]1O[C@@H](n2cnc3c(NCc4ccccc4)nc(-c4cncc(F)c4)nc32)[C@H](O)[C@@H]1O [compound 32, (2S,3S,4R,5R)-5-(6-(benzylamino)-2-(5-fluoropyridin-3-yl)-9H-purin-9-yl)-3,4-dihydroxyl-N-(methyl-d3)-tetrahydrofuran-2-formamide]
1578.00 kg·ng·h/mL/mg | [2H]C([2H])([2H])NC(=O)[C@H]1O[C@@H](n2cnc3c(NCc4ccccc4)nc(-c4cncc(OC)c4)nc32)[C@H](O)[C@@H]1O [compound 33, (2S,3S,4R,5R)-5-(6-(benzylamino)-2-(5-methoxypyridin-3-yl)-9H-purin-9-yl)-3,4-dihydroxyl-N-(methyl-d3)-tetrahydrofuran-2-formamide]
578.00 kg·ng·h/mL/mg | [2H]C([2H])([2H])NC(=O)[C@H]1O[C@@H](n2cnc3c(NCc4ccccc4)nc(-c4cncc(CC)c4)nc32)[C@H](O)[C@@H]1O [compound 34, (2S,3S,4R,5R)-5-(6-(benzylamino)-2-(5-ethylpyridin-3-yl)-9H-purin-9-yl)-3,4-dihydroxyl-N-(methyl-d3)-tetrahydrofuran-2-formamide]
110.00 kg·ng·h/mL/mg | CCNC(=O)[C@H]1O[C@@H](n2cnc3c(NC)nc(-c4ccc(OC)nc4)nc32)[C@H](O)[C@@H]1O [compound 58, (2S,3S,4R,5R)-N-ethyl-3,4-dihydroxyl-5-(2-(6-methoxypyridin-3-yl)-6-(methylamino)-9H-purin-9-yl)tetrahydrofuran-2-carboxamide]
360.90 kg·ng·h/mL/mg | CNC(=O)[C@H]1O[C@@H](n2cnc3c(NCc4ccccn4)nc(-c4cncc(C)c4)nc32)[C@H](O)[C@@H]1O [compound 69, (2S,3S,4R,5R)-3,4-dihydroxyl-N-methyl-5-(2-(5-methylpyridin-3-yl)-6-((pyridin-2-ylmethyl)amino)-9H-purin-9-yl)tetrahydrofuran-2-carboxamide]
213.00 kg·ng·h/mL/mg | CCNC(=O)[C@H]1O[C@@H](n2cnc3c(NC)nc(-c4ccoc4)nc32)[C@H](O)[C@@H]1O [compound 74, (2S,3S,4R,5R)-N-ethyl-5-(2-(furan-3-yl)-6-(methylamino)-9H-purin-9-yl)-3,4-dihydroxyltetrahydrofuran-2-carboxamide]
81.00 kg·ng·h/mL/mg | CCNC(=O)[C@H]1O[C@@H](n2cnc3c(NC)nc(-c4ccsc4)nc32)[C@H](O)[C@@H]1O [compound 77, (2S,3S,4R,5R)-N-ethyl-3,4-dihydroxyl-5-(6-(methylamino)-2-(thiophen-3-yl)-9H-purin-9-yl)tetrahydrofuran-2-carboxamide]
115.00 kg·ng·h/mL/mg | [2H]C([2H])([2H])NC(=O)[C@H]1O[C@@H](n2cnc3c(NC([2H])([2H])[2H])nc(-c4ccoc4)nc32)[C@H](O)[C@@H]1O [compound 97, (2S,3S,4R,5R)-5-(2-(furan-3-yl)-6-((methyl-d3)amino)-9H-purin-9-yl)-3,4-dihydroxyl-N-(methyl-d)tetrahydrofuran-2-carboxamide]
276.50 kg·ng·h/mL/mg | CNC(=O)[C@H]1O[C@@H](n2cnc3c(NCc4ccccc4)nc(-c4cccnc4)nc32)[C@H](O)[C@@H]1O [compound 110, (2S,3S,4R,5R)-5-(6-(benzylamino)-2-(pyridin-3-yl)-9H-purin-9-yl)-3,4-dihydroxyl-N-methyltetrahydrofuran-2-carboxamide]
347.00 kg·ng·h/mL/mg | CNC(=O)[C@H]1O[C@@H](n2cnc3c(NCc4ccccc4)nc(-c4cncc(C)c4)nc32)[C@H](O)[C@@H]1O [compound 118, (2S,3S,4R,5R)-5-(6-(benzylamino)-2-(5-methylpyridin-3-yl)-9H-purin-9-yl)-3,4-dihydroxyl-N-methyltetrahydrofuran-2-carboxamide]
86.00 kg·ng·h/mL/mg | CNC(=O)[C@H]1O[C@@H](n2cnc3c(NCc4ccccc4)nc(-c4ccc(C)nc4)nc32)[C@H](O)[C@@H]1O [compound 120, (2S,3S,4R,5R)-5-(6-(benzylamino)-2-(6-methylpyridin-3-yl)-9H-purin-9-yl)-3,4-dihydroxyl-N-methyltetrahydrofuran-2-carboxamide]
80.00 kg·ng·h/mL/mg | CNC(=O)[C@H]1O[C@@H](n2cnc3c(NCc4ccccc4)nc(-c4ccc(F)c(F)c4)nc32)[C@H](O)[C@@H]1O [compound 143, (2S,3S,4R,5R)-5-(6-(benzylamino)-2-(3,4-difluorophenyl)-9H-purin-9-yl)-3,4-dihydroxyl-N-methyltetrahydrofuran-2-carboxamide]
337.00 kg·ng·h/mL/mg | CNC(=O)[C@H]1O[C@@H](n2cnc3c(NCc4ccccc4)nc(-c4ccoc4)nc32)[C@H](O)[C@@H]1O [compound 149, (2S,3S,4R,5R)-5-(6-(benzylamino)-2-(furan-3-yl)-9H-purin-9-yl)-3,4-dihydroxyl-N-methyltetrahydrofuran-2-carboxamide]
1821.60 kg·ng·h/mL/mg | CNC(=O)[C@H]1O[C@@H](n2cnc3c(NCc4ccccc4)nc(-c4cncc(Cl)c4)nc32)[C@H](O)[C@@H]1O [compound 150, (2S,3S,4R,5R)-5-(6-(benzylamino)-2-(5-chloropyridin-3-yl)-9H-purin-9-yl)-3,4-dihydroxyl-N-methyltetrahydrofuran-2-carboxamide]
89.00 kg·ng·h/mL/mg | CNC(=O)[C@H]1O[C@@H](n2cnc3c(NCc4ccccc4)nc(-c4ccsc4)nc32)[C@H](O)[C@@H]1O [compound 151, (2S,3S,4R,5R)-5-(6-(benzylamino)-2-(thiophen-3-yl)-9H-purin-9-yl)-3,4-dihydroxyl-N-methyltetrahydrofuran-2-carboxamide]
1352.37 kg·ng·h/mL/mg | CNC(=O)[C@H]1O[C@@H](n2cnc3c(NCc4ccccc4)nc(-c4cncc([N+](=O)[O-])c4)nc32)[C@H](O)[C@@H]1O [compound 152, (2S,3S,4R,5R)-5-(6-(benzylamino)-2-(5-nitropyridin-3-yl)-9H-purin-9-yl)-3,4-dihydroxyl-N-methyltetrahydrofuran-2-carboxamide]
